# Measured values from the SangsterLogP compilation.
# Assays:
# [1] = method code SF, from PMID: 7274411
# [2] = method code SF-HPLC, from DOI: 10.1023/a:1011018730459, PMID: 11451042
# [3] = method code SF-HPLC, from DOI: 10.1248/cpb.47.1081, PMID: 10478463; settings: pH 6.5
# [4] = method code SF-AS, from DOI: 10.1021/jm00234a001, PMID: 1003419
# [5] = method code SF-AS, from DOI: 10.1135/cccc19831077; settings: pH 3.5
# [6] = method code SF-HPLC, from DOI: 10.1080/01483919108049396; settings: pH 7.0
# [7] = method code SF-HPLC, from DOI: 10.1016/0378-5173(89)90028-8
# [8] = method code SF-AS, from DOI: 10.1002/ardp.19853180604, PMID: 4026543; settings: pH 7.4
# [9] = not given; remark: listed apart in the source
# [10] = method code SF-RC, from DOI: 10.1021/jf60186a044, PMID: 4688915
# [11] = not given; remark: listed apart in the source
# [12] = method code SF-HPLC, from DOI: 10.1016/s0223-5234(98)80037-8; settings: pH 7.4
# [13] = method code SF-HPLC, from DOI: 10.1016/0378-5173(90)90181-3; settings: pH 7.4
# [14] = not given; remark: listed apart in the source
# [15] = not given; remark: listed apart in the source
# [16] = method code SF, from DOI: 10.1021/jm00294a005, PMID: 5000561
# [17] = method code SF, from DOI: 10.1016/0006-2952(79)90295-8, PMID: 36087
# [18] = not given; remark: listed apart in the source
# [19] = method code SF-HPLC, from PMID: 9554875; settings: pH 6.8
# [20] = method code SF, from PMID: 25193232; settings: pH 7.4
# [21] = method code SF-HPLC, from DOI: 10.1016/s0024-3205(00)00615-9, PMID: 10901288; settings: pH 5.0
# [22] = method code SF-AS, from DOI: 10.1021/jm00040a014, PMID: 8035429; settings: pH 7.4
# [23] = method code SF-HPLC, from DOI: 10.1016/j.bmc.2015.09.009, PMID: 26385444
smiles,measurement,setting,value
O=C1CN=C(c2ccccc2)c2cc([N+](=O)[O-])ccc2N1,logD,[1]; pH 8.0,2.06
CCCCC(=O)OCC1OC(n2cnc3c(NC4CCCC4)ncnc32)C(O)C1O (stereo unspecified),logP,[2],2.79
CO/N=C(/C(=O)NC1C(=O)N2C(C(=O)OCc3oc(=O)oc3C)=CCSC12)c1csc(N)n1 (stereo unspecified),logD,[3],0.17
CCN(CC)CC(=O)NC1c2ccccc2Oc2c(C)cccc21 (stereo unspecified),logP,,3.73
OCC1OC(Oc2cc(OC3OC(CO)C(O)C(O)C3O)c(I)cc2I)C(O)C(O)C1O (stereo unspecified),logP,[4],-0.25
O=C(O)Cc1ccc(OCc2ccccc2)c(Cl)c1,logD,[5],3.43
O=C(Nc1ncnc2c1ncn2[C@@H]1O[C@H](CO)[C@@H](O)[C@H]1O)c1ccccc1,logD,[6],-0.1
CCn1cc(C(=O)OCOC(C)=O)c(=O)c2ccc(C)nc21,logP,[7],1.21
COc1ccc(N2C(=O)CSC2=Nn2c(C)nc3ccccc3c2=O)cc1,logD,[8],-1.23
CCOCCOCCOc1ccc2c(c1)c(-c1ccccc1)nc(=O)n2C,logP,[9],1.84
CCOc1ccc(C(c2ccc(C)cc2)C(Cl)(Cl)Cl)cc1 (stereo unspecified),logP,[10],3.96
O=C(Nc1ccn(C2OC(CO)C(O)C2O)c(=O)n1)c1ccccc1 (stereo unspecified),logD,[6],0.3
CN1CCC(=C2c3ccccc3CCc3cccnc32)CC1,logP,[11],3.59
Cc1cccc2c1Oc1cc(Cl)ccc1C2NC(=O)CN(C)C (stereo unspecified),logP,,3.44
CC(C)Cc1ccc(C(C)C(=O)OCN2C(=O)c3ccccc3C2=O)cc1 (stereo unspecified),logD,[12],5.36
CN1C(=O)CN=C(c2ccccc2F)c2cc([N+](=O)[O-])ccc21,logD,[1]; pH 4.0,2.05
O=C(O)Cc1ccc(OCCCc2ccccc2)c(Cl)c1,logD,[5],3.9
OCC1OC(Oc2c(I)cc(I)c(OC3OC(CO)C(O)C(O)C3O)c2I)C(O)C(O)C1O (stereo unspecified),logP,[4],-0.74
O=C(OCn1ncc2c(=O)[nH]cnc21)c1ccc(CN2CCOCC2)cc1,logD,[13],1.13
CON=C(C(=O)NC1C(=O)N2C(C(=O)OCOC(=O)C(C)(C)C)=CCSC12)c1csc(N)n1 (stereo unspecified),logD,[3],1.57
CC(=O)Oc1ccccc1C(=O)OCN1C(=O)c2ccccc2C1=O,logD,[12],3.23
COc1ccc2cc(C(C)C(=O)OCC3COC(C)(C)O3)ccc2c1 (stereo unspecified),logP,[14],4.23
OC1(c2cccc(Br)c2)c2ccccc2C2=NCCN21 (stereo unspecified),logP,[15],1.97
Cn1c(=O)nc(-c2ccccc2)c2ccccc21,logP,[9],1.79
CCCC1CC(C(=O)NC(C(C)O)C2OC(SC)C(O)C(O)C2O)N(C)C1 (stereo unspecified),logP,[16],0.2
CNC(=O)COc1ccc(OCC(O)CNC(C)C)cc1 (stereo unspecified),logP,[17],0.56
C/N=C1/CN(O)C(c2ccccc2)=c2cc(Cl)ccc2=N1,logD,[1]; pH 8.0,2.12
COc1ccc2cc(C(C)C(=O)OCC(O)CO)ccc2c1 (stereo unspecified),logP,[14],2.65
CN1CCN(CCCN2c3ccccc3Sc3ccc(C(F)(F)F)cc32)CC1,logP,[18],4.71
CCC(=O)OCOC(=O)c1cn(CC)c2nc(C)ccc2c1=O,logP,[7],1.7
O=C(Nc1ncnc2c1ncn2[C@H]1C[C@H](O)[C@@H](CO)O1)c1ccccc1,logD,[6],0.22
COc1cccc2c1OP(=O)(OC[C@@H]1C=C[C@H](n3cc(C)c(=O)[nH]c3=O)O1)OC2 (stereo partly specified),logD,[19],0.15
Cc1cn(C2C=CC(COP3(=O)OCc4cc([N+](=O)[O-])ccc4O3)O2)c(=O)[nH]c1=O (stereo unspecified),logD,[19],0.18
O=C(NOC[C@H](O)CO)c1ncc2cncn2c1Nc1ccc(I)cc1F,logD,[20],1.1
Cc1cn(C2C=CC(COP3(=O)OCc4cc(Cl)ccc4O3)O2)c(=O)[nH]c1=O (stereo unspecified),logD,[19],0.88
CC(=O)NCc1cccc(OCC(O)CNC(C)C)c1 (stereo unspecified),logP,[17],0.34
OC1(c2cccc(Cl)c2)c2ccccc2C2=NCCN21 (stereo unspecified),logP,[15],1.85
CCN1CCN(Cc2ccc(OC)c(OC)c2OC)CC1,logP,[18],1.69
CCNC(=O)Oc1cc(/C=C(\C#N)C(=O)N(CC)CC)cc([N+](=O)[O-])c1O,logD,[21],0.82
CCn1cc(C(=O)OCOC(=O)C(C)C)c(=O)c2ccc(C)nc21,logP,[7],2.17
Cn1c(=O)nc(-c2ccccc2)c2cc(O)ccc21,logP,[9],1.72
CCC(=O)OC1C(C)OC(OC2C(C)OC(OC3C(CC=O)CC(C)C(O)/C=C/C=C/CC(C)OC(=O)CC(OC(C)=O)C3OC)C(O)C2N(C)C)CC1(C)O (stereo unspecified),logP,[16],1.38
O=C(OCn1ncc2c(=O)[nH]cnc21)c1cccc(CN2CCOCC2)c1,logD,[13],1.12
CNC(=O)COc1cccc(OCC(O)CNC(C)C)c1 (stereo unspecified),logP,[17],0.35
CCN(CC)CCCC(C)Nc1c2ccc(Cl)cc2nc2ccc(OC)cc12 (stereo unspecified),logP,[18],5.09
CNC(=O)c1c(I)c(O[C@@H]2O[C@H](CO)[C@@H](O)[C@H](O)[C@H]2O)c(I)c(O[C@@H]2O[C@H](CO)[C@@H](O)[C@H](O)[C@H]2O)c1I,logP,[4],-1.57
O=C(OCn1ncc2c(=O)[nH]cnc21)c1cccc(Cn2ccnc2)c1,logD,[13],0.97
CCOP(=O)(OCC)C(=O)CCCCNc1ccn(C2CSC(CO)O2)c(=O)n1 (stereo unspecified),logD,[22],1.21
COc1ccc2c(c1)c(CC(=O)OCN1C(=O)c3ccccc3C1=O)c(C)n2C(=O)c1ccc(Cl)cc1,logD,[12],5.64
CCN(CC)C(=O)C(C#N)=Cc1cc(OC(=O)NC(C)(C)C)c(O)c([N+](=O)[O-])c1,logD,[21],1.8
CC1=C(C(=O)Nc2nc3ccccc3s2)C(c2ccc(N(C)C)cc2)NC(=S)N1 (stereo unspecified),logP,[23],2.22
CO[C@@H]1[C@@H](O[C@@H]2O[C@H](C)[C@@H](O[C@H]3C[C@@](C)(O)[C@@H](OC(=O)CC(C)C)[C@H](C)O3)[C@H](N(C)C)[C@H]2O)[C@@H](CC=O)C[C@@H](C)[C@@H](O)/C=C/C=C/C[C@@H](C)OC(=O)C[C@H]1O,logP,[16],2.18
Cc1ccc(N2C(=O)CSC2=Nn2c(C)nc3ccccc3c2=O)cc1,logD,[8],-1.12
Cc1cccc2c1Oc1ccccc1C2NC(=O)CN(C)C (stereo unspecified),logP,,2.7
O=C(NOCCO)c1ccn2cncc2c1Nc1ccc(I)cc1F,logD,[20],2.05
CC(O)CONC(=O)c1ncc2cncn2c1Nc1ccc(I)cc1F (stereo unspecified),logD,[20],2.2
CCOP(=O)(OCC)C(=O)OCC1OC(n2ccc(NC(C)=O)nc2=O)CS1 (stereo unspecified),logD,[22],0.65
OC[C@H]1O[C@@H](n2cnc3c(NC4CCCC4)ncnc32)[C@H](O)[C@@H]1O,logP,[2],1.21
OC1(c2cccc(I)c2)c2ccccc2C2=NCCN21 (stereo unspecified),logP,[15],2.3
CC1=C(C(=O)Nc2nc3ccccc3s2)C(c2ccc(F)cc2)NC(=S)N1 (stereo unspecified),logP,[23],2.18
CSc1ccc(C(c2ccc(SC)cc2)C(Cl)(Cl)Cl)cc1,logP,[10],3.85
OC(CCCN1CCC(C(O)(c2ccccc2)c2ccccc2)CC1)c1ccccc1 (stereo unspecified),logP,[11],3.9
Cc1nc2ccccc2c(=O)n1N=C1SCC(=O)N1c1ccc(F)cc1,logD,[8],-1.36
COc1ccc(C(c2ccc(SC)cc2)C(Cl)(Cl)Cl)cc1 (stereo unspecified),logP,[10],2.9
O=C(OCC1OC(n2cnc3c(NC4CCCC4)ncnc32)C(O)C1O)C1CCCCC1 (stereo unspecified),logP,[2],2.95
COc1ccc2cc(C(C)C(=O)OCC(COC(=O)C(C)c3ccc4cc(OC)ccc4c3)OC(=O)C(C)c3ccc4cc(OC)ccc4c3)ccc2c1 (stereo unspecified),logP,[14],6.84
Cc1cc(CC(=O)O)ccc1OCc1ccccc1,logD,[5],3.37
CCCCNC(=O)Oc1cc(/C=C(\C#N)C(=O)N(CC)CC)cc([N+](=O)[O-])c1O,logD,[21],1.98
CCOC(=O)OC(C)OC(=O)C1=CCSC2C(NC(=O)C(=NOC)c3csc(N)n3)C(=O)N12 (stereo unspecified),logD,[3],0.96
CC1=C(C(=O)Nc2nc3ccccc3s2)C(c2ccc(C(F)(F)F)cc2)NC(=S)N1 (stereo unspecified),logP,[23],2.92
Clc1ccc2c(c1)CCc1cccnc1C2=C1CCNCC1,logP,[11],2.56
